{"source": "patent EP0462621A2", "about": "“Use of particular compounds for manufacture of pharmaceutical formulations for treatment against various parasites, mycoplasmas, other indications and other infections” (Prendergast, Patrick Thomas, priority 1990, dated 1991)", "test_system": "HIV", "test": "HIV production from H9 cells persistently infected with HIV, RT activity", "assay_type": "cell-based", "description": "To examine the effect of IPA on the production of HIV-1 in H9 cells persistently infected with HIV-1, 5x10^6 HIV-1-infected H9 cells were incubated in the absence or presence of IPA. Every 4-5 days, two thirds of the total cells were removed and medium was changed. New medium with or without drug was added to bring up to the original volume. At days indicated, culture supernatant was withdrawn and tested for the production of HIV-1 by the RT activity. A 20,000 cpm or more TCA insoluble radioactivity per millilitre of supernatant was considered positive in the RT assay. Results"}
{"compound": "CC(C)=CCNc1ncnc2c1ncn2[C@@H]1O[C@H](CO)[C@@H](O)[C@H]1O", "note": "[IPA, N^6-(Δ^2-isopentenyl) adenosine]", "values": [{"measurement": "HIV PRODUCTION RT ACTIVITY cpm/ml", "setting": "DRUG CONCENTRATION 3.75 (unit not given), 15 DAYS p.d., without drug 3 x 10^5", "result": "2.3 x 10^5 cpm/ml"}, {"measurement": "HIV PRODUCTION RT ACTIVITY cpm/ml", "setting": "DRUG CONCENTRATION 3.75 (unit not given), 25 DAYS p.d., without drug 1.1 x 10^6", "result": "1.2 x 10^5 cpm/ml"}, {"measurement": "HIV PRODUCTION RT ACTIVITY cpm/ml", "setting": "DRUG CONCENTRATION 7.5 (unit not given), 15 DAYS p.d., without drug 3 x 10^5", "result": "2.9 x 10^5 cpm/ml"}, {"measurement": "HIV PRODUCTION RT ACTIVITY cpm/ml", "setting": "DRUG CONCENTRATION 7.5 (unit not given), 25 DAYS p.d., without drug 1.1 x 10^6", "result": "3.2 x 10^5 cpm/ml"}, {"measurement": "HIV PRODUCTION RT ACTIVITY cpm/ml", "setting": "DRUG CONCENTRATION 15 (unit not given), 15 DAYS p.d., without drug 3 x 10^5", "result": "2.3 x 10^5 cpm/ml"}, {"measurement": "HIV PRODUCTION RT ACTIVITY cpm/ml", "setting": "DRUG CONCENTRATION 15 (unit not given), 25 DAYS p.d., without drug 1.1 x 10^6", "result": "3.6 x 10^5 cpm/ml"}, {"measurement": "HIV PRODUCTION RT ACTIVITY cpm/ml", "setting": "DRUG CONCENTRATION 30 (unit not given), 15 DAYS p.d., without drug 3 x 10^5", "result": "2.9 x 10^5 cpm/ml"}, {"measurement": "HIV PRODUCTION RT ACTIVITY cpm/ml", "setting": "DRUG CONCENTRATION 30 (unit not given), 25 DAYS p.d., without drug 1.1 x 10^6", "result": "2.5 x 10^5 cpm/ml"}]}
